# Source: ChEMBL document CHEMBL5729469, “Compounds for treating ILK-mediated diseases” (2022)
# Molecular target: Epidermal growth factor receptor (Homo sapiens, UniProt P00533)
# Assay: Biochemical Assay: Thus, while these compounds were extensively used in studying ILK-mediated cellular and disease processes, their reported inhibitory effects are probably due to unknown artifacts or indirect binding events. Next, we turned our attention to previously reported studies on kinase profiling and quantitative chemical proteomics. These studies suggested that a widely known lung …
# Epidermal growth factor receptor, sequence (P00533 whole entry): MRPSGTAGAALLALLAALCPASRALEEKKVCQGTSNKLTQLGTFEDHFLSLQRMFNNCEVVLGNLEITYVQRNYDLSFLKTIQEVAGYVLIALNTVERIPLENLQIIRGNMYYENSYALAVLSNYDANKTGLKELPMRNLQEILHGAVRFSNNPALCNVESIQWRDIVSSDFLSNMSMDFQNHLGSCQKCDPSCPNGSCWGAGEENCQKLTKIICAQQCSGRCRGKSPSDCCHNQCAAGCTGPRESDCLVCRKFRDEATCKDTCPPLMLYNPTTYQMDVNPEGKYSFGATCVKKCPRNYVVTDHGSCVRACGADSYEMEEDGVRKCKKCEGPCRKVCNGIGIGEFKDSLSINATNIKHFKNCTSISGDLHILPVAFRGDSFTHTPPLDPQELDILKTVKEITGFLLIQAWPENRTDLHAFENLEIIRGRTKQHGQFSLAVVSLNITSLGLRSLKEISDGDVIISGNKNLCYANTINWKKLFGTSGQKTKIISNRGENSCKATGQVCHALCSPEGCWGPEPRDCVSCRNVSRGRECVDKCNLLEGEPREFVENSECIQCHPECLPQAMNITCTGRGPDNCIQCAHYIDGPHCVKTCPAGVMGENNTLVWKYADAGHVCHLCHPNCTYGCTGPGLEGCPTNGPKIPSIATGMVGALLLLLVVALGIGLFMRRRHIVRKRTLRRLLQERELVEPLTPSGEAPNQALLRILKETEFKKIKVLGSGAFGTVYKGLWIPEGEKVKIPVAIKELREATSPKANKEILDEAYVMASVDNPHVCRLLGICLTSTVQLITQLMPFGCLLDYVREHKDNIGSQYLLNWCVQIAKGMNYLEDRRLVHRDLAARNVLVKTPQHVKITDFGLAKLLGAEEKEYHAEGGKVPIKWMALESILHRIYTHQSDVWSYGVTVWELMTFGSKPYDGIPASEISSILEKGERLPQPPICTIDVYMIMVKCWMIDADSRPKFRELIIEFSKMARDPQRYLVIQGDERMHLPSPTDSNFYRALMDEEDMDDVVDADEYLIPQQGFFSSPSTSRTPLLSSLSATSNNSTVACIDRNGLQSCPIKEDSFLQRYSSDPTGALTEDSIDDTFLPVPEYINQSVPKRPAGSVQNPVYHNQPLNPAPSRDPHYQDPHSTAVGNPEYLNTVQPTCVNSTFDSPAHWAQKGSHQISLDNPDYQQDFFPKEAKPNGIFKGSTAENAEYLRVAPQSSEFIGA
row,Kd,SMILES
1,745 nM,C#Cc1cc(Nc2ncnc3cc(OCCOC)c(OCCOC)cc23)ccc1C
2,1150 nM,C#Cc1cc(C#C)cc(Nc2ncnc3cc(OC)c(OC)cc23)c1
3,17700 nM,C#Cc1cc(Nc2ncnc3cc(OCCOC)ccc23)cc(OCCOCC)c1
